Consider 10 molecules from US20260176636A1, “APTAMER-DIRECT INHIBITOR CONJUGATES AND METHODS OF USING THE SAME” (Duke University, priority 2022, published 2026).

For one data set, the target named is T1, human factor Xa (Homo sapiens, UniProt P00742).
T1 construct: Human alpha thrombin, human factor Xa, and human fibrinogen were purchased from Haematologic Technologies Inc; purchased Haematologic Technologies Inc
The experiment in a line: Fluorogenic activity assay (fluorescent peptidyl substrate cleavage), factor Xa. It counts as biochemical. Conditions: for IC50: factor Xa 0.5 nM, fluorogenic substrate 50 μM; for factor Xa inhibition, result in words: fluorogenic substrate assay; for antidote reversal of factor Xa inhibition by 11F7t-20A-DAB, result in words: antidote oligonucleotide.

Data set [1] concerns normal human plasma. Briefly: Activated partial thromboplastin time (aPTT) plasma coagulation assay. Particulars: for effect on aPTT, result in words: normal human plasma, comparison with DAB at 500 nM. How it is done:
(§1) Plasma coagulation assays: Thrombin time (TT), prothrombin time (PT), and activated partial thromboplastin time (aPTT) assays were performed in citrated normal human plasma on a hemostasis coagulation analyzer (Diagnostica Stago). For TT, 5 μL of inhibitors in the reaction buffer were mixed with 100 μL of plasma and incubated at 37° C. for 5 min. 50 μL of thrombin (6 NIH units/ml) in the reaction buffer was then added to initiate clotting. For PT, 5 μl of inhibitors in the reaction buffer were mixed with 50 μL of plasma and incubated at 37° C. for 5 min. 100 μL of TriniCLOT PT Excel S reagent was then added to initiate clotting. For aPTT, 5 μL of inhibitors in the reaction buffer were mixed with 50 μL of plasma and incubated at 37° C. for 5 min, 50 μL of TriniCLOT aPTT S reagents was then added followed by another 5 min incubation at 37° C. Finally, 50 μL of 20 mM CaCl2) was added to initiate clotting. To characterize antidote reversal of HD22-7A-DAB in the above assays, 5 μL AO2 (finial concentration 2 μM) in the reaction buffer was added after 5-min incubation between plasma and HD22-7A-DAB, followed by another 5 min of incubation before the next step. All assays are performed induplicates.

Another data set addresses Human alpha thrombin (Homo sapiens, UniProt P00734). The experiment in a line: Fluorogenic activity assay (fluorescent peptidyl substrate cleavage), thrombin. Conditions: for antidote reversal of thrombin inhibition, result in words / thrombin inhibition, result in words: fluorogenic substrate assay; for antidote reversal of thrombin inhibition, result in words: antidote oligonucleotide.

The subject of data set [2] is normal human plasma. The experiment in a line: Thrombin time (TT) plasma coagulation assay. How it is done: as §1
Data set [3] relates to normal human plasma. Briefly: Prothrombin time (PT) plasma coagulation assay. The method, then: as §1
Data set [4] concerns the target T2, thrombin (cleavage of fibrinogen) (Homo sapiens, UniProt P00734).
T2 construct: Human alpha thrombin, human factor Xa, and human fibrinogen were purchased from Haematologic Technologies Inc; purchased Haematologic Technologies Inc
The experiment in a line: Fibrinogen turbidity assay. The data set is classed as biochemical. How it is done:
To test the kinetics of antidote reversal, 1 μL AO2 (final concentration 2 μM) was added to the reaction 10 min after fibrinogen addition. The maximum absorption over the period of assay in the absence and presence of different inhibitors were determined. The time to reach 10%, 50%, and 90% maximum absorption increase from the start point were calculated and recorded as lag time, t50, and t90, respectively, for each inhibitor to evaluate the kinetic of fibrinogen activation. Each experiment was performed in triplicates to determine the mean and standard deviation of each parameter.

In the next data set the target is thrombin (Homo sapiens, UniProt P00734). Particulars: cited from earlier work.
For another data set, the target named is factor Xa. Particulars: cited from earlier work.
The target in data set [5] is T3, thrombin (FVIII activation) (Homo sapiens, UniProt P00734).
T3 construct: Human alpha thrombin, human factor Xa, and human fibrinogen were purchased from Haematologic Technologies Inc; purchased Haematologic Technologies Inc
Briefly: Thrombin cleavage of FVIII (SDS-PAGE). The data set is classed as biochemical. Conditions: 100 nM inhibitor, 1 nM thrombin, 100 nM FVIII. The method, then: Thrombin (final concentration 1 nM) was incubated in the absence or presence of thrombin inhibitors (final concentration 100 nM) at 37° C. for 5 min following by addition of recombinant human FVIII (final concentration 100 nM). Sample were collected at 1, 2, 5, 10, 20, 30, 40, and 60 min of reaction and quenched in SDS loading buffer and heating at 95° C. for 5 min. The digestion products at different time points are then characterized on a 4-20% PAGE gel. Thrombin's activity on activating FVIII in the absence and presence of thrombin inhibitors were quantified using the time-course concentration of intact light chain under thrombin digestion determined by band intensity. The assay was performed in duplicates.

Where [6] appears, read: 2 μM AO2 added at 10 min to thrombin-fibrinogen-HD22-7A-DAB (50 nM).

Entries after “also recorded” stand apart in the source; their conditions may differ.

T1 sequence (P00742 235-488 limits assumed): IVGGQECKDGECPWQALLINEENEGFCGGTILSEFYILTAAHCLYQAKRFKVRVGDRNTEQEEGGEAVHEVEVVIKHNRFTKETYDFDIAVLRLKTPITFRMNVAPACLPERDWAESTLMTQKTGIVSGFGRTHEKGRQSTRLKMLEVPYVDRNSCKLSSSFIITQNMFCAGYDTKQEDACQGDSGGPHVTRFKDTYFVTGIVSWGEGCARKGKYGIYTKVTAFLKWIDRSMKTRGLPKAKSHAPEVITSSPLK
T1 sequence (P00742 41-179 limits assumed): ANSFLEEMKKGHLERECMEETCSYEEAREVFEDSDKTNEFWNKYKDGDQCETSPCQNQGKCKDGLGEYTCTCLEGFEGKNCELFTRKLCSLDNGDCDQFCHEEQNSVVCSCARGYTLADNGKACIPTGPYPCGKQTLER
Procedure for Human alpha thrombin: Initial velocity studies of fluorescent peptidyl substrate cleavage by thrombin were used to assess protease inhibition by the EXACT inhibitor (FIG. 1c).
(§2) Fluorogenic activity assay: All reagents were freshly reconstituted in the reaction buffer (20 mM HEPES, 150 mM NaCl, and 2 mM CaCl2), 0.02%, Tween 20, pH 7.5) before the assay. 10 μL of thrombin or factor Xa (final concentration 0.5 nM) were first incubated with 5 μL of inhibitor, inhibitor/antidote mixture, or buffer control on a 384-well opaque plate for 5 min at 28° C. 10 μL of fluorogenic substrate (final concentration 50 μM) was then added to the mixture and the time-course fluorescence (λex=352 nm, λem=470 nm) of the sample were recorded every minute for 15 min at 28° C. using a SpectraMax i3 microplate reader (Molecular Devices). The catalytic rate of the protease was quantified by the slope from linear regression of the time-dependent fluorescence intensity and normalized with the sample containing no inhibitor as 100%. Each experiment was performed in triplicates.
Procedure for human factor Xa: as §2

The term IC50 denotes the concentration that inhibits the measured activity by half. At human factor Xa, `COc1ccc(-n2nc(C(=O)O)c3c2C(=O)N(c2ccc(N4CCCCC4=O)cc2)CC3)cc1` [APX, apixaban-COOH, reference compound] yielded an IC50 of 5.5 nM. This counts as single-digit nanomolar.

Consider “AO2: antidote oligonucleotide complementary to entire HD22 aptamer and linker, SEQ ID NO: 4 (AGTCACCCCAACCTGCCCTACCACGGACTTTTTTTT; antidote oligonucleotide complementary to aptamer and linker, chemistry not given here, further chemistry not given here)”, for which, in the data set with normal human plasma [1] (2 μM AO2), the “antidote reversal of HD22-7A-DAB in aPTT” value is on record as “efficiently reversed”. Further, the “reduction of the potency of HD22-7A-DAB by antidote” value in the data set with Human alpha thrombin (antidote oligonucleotide added to HD22-7A-DAB, FIG. 1c) is “more than 10,000 fold”. Besides, in the data set with Human alpha thrombin, the “antidote reversal of thrombin inhibition, result in words” value was “efficiently reversed; also recorded: reduces the potency of the EXACT conjugate to an extent that is significantly lower than free DAB”. Moreover, in the data set on normal human plasma [2] (2 μM AO2), the “antidote reversal of HD22-7A-DAB in TT” value was “largely reversed within 5 minutes”. In addition, the “antidote reversal of HD22-7A-DAB in PT” value in the data set with normal human plasma [3] (2 μM AO2) was “efficiently reversed”. Further, in data set [4] (setting [6]), the “lag time after antidote addition” value amounted to 9.8 min; the “time over which absorbance increased and saturated after antidote” value was 20.7 min.

Broadly, the Ki is the dissociation constant of the complex between target and ligand, obtained from inhibition or displacement. With hirudin, at thrombin (read-out: inhibition constant (Ki), thrombin), the Ki is 0.01 nM.

On to “TAP: Tick anticoagulant peptide secreted by Ornithodoros moubata, factor Xa inhibitor (YNRLCIKPRDWIDECDSNEGGERAYFRNGKGGCDSFWICPEDHTGADYYSSYRDCFNACI; UniProt P17726 1-60, looked up)”, for which the Ki at factor Xa (read-out: Ki, free FXa) is 0.18 nM.

As to “11F7t-20A-DAB (GAGAGCCCCAGCGAGAUAAUACUUGGCCCCGCUCUUU; 5' DAB-C6H12-2'OMeA linker conjugate; modified_base 37 OTHER; Inverted dT)”, in the data set with human factor Xa, the IC50 came out at 0.18 nM and the “factor Xa inhibition, result in words” value is given as “significantly higher inhibitory effect of thrombin than DAB, 11F7t, or their equimolar mixture”. Also, in the data set with human factor Xa (versus free DAB), the “enhancement in the IC50 for factor Xa when DAB is conjugated to 11F7t” value is reported as greater than 2500 fold. In addition, the “thrombin inhibition, result in words” value with Human alpha thrombin was “no different from DAB alone”.

Broadly, the Kd is the concentration at which binding is half-saturated. On to “11F7t: factor Xa RNA aptamer, SEQ ID NO: 9 (GAGAGCCCCAGCGAGAUAAUACUUGGCCCCGCUCUUU; modified_base 37 OTHER; Inverted dT) [reference compound]”, for which the “factor Xa inhibition, result in words” value in the data set with human factor Xa is listed as “showed no inhibition”. Moreover, the Kd in the data set on factor Xa (free aptamer) is 1.26 nM.

On to “AO5.4: antidote for 11F7t-20A-DAB pairing with entire linker and part of aptamer, SEQ ID NO: 11 (TATTATCTCGCTGGGGCTCTCTTTTTTTTTTTTTTTTTTTT; antidote oligonucleotide, chemistry not given here, further chemistry not given here)”, for which the “antidote reversal of factor Xa inhibition by 11F7t-20A-DAB, result in words” value with human factor Xa (listed as A05.4) was “efficiently reversed”; with human factor Xa (listed as AG5.4), “effectively reverses the inhibition”.

With “11F7t-20A-APX (GAGAGCCCCAGCGAGAUAAUACUUGGCCCCGCUCUUU; 5' APX-C6H12-2'OMeA linker conjugate; modified_base 37 OTHER; Inverted dT)”, the “effect on aPTT, result in words” value in the data set on normal human plasma [1] was “significantly higher anticoagulant activity than free aptamer, small molecule inhibitor, and their equimolar mixture”. Besides, it took 0.17 nM to reach half-maximal inhibition in the data set with human factor Xa (IC50).

Turning to “HD22: thrombin exosite II-binding DNA aptamer, SEQ ID NO: 1 [reference compound]”, the “effect on aPTT, result in words” value with normal human plasma [1] is given as “no anticoagulant effect”. For the same molecule, the “maximum inhibition of thrombin activity” value with Human alpha thrombin (thrombin 0.5 nM, fluorogenic substrate) was 30%. The “inhibition of thrombin-mediated FVIII cleavage, result in words” value in data set [5] is given as “showed an inhibitory effect”. In addition, in the data set with thrombin (read-out: KD, thrombin anion binding exosite 2), the equilibrium dissociation constant (Kd) is 0.5 nM. Also, the “effect on TT, result in words” value in the data set with normal human plasma [2] (normal human plasma) is listed as “minimally affected TT”. Also, in the data set on normal human plasma [3] (normal human plasma, comparison with DAB at 500 nM), the “effect on PT, result in words” value was “no anticoagulant effect”. Moreover, the “inhibition of thrombin-mediated fibrin clot formation, result in words” value in data set [4] (50 nM inhibitor, 2.5 nM thrombin, 0.8 mg/mL fibrinogen, absorbance 550 nm) is “did not inhibit this thrombin activity”.

As for “HD1-12A-DAB (GGTTGGTGTGGTTGG; 3' DAB conjugate via C6H12O2 linker, further chemistry not given here)”, in the data set with Human alpha thrombin, the “thrombin inhibition, result in words” value was “significantly higher inhibitory effect to thrombin compared with DAB, HD1, or their equimolar mixture” and the “antidote reversal of thrombin inhibition, result in words” value is given as “efficiently reversed by specific antidotes; also recorded: efficiently reversed by an antisense oligo”.
